The subject of one experiment is IL-1β. Put plainly: Inhibition of IL-1β in an LPS/ATP induced acute peritonitis mouse model. Type of experiment: in vivo. As to conditions: BALB/c mice; dosed 30 min before LPS i.p.; ATP i.p. 120 min after LPS; PW 30 min post ATP; vs LPS-ATP, 0 mg/kg. The method, then:
1.2.1 The efficacy of Example compounds 53 and 18 in an LPS/ATP-induced acute peritonitis was evaluated: LPS (Lipopolysaccharide) and ATP (Adenosine triphosphate) were administered to BALB/c mice by intraperitoneal (i.p.) injection to elicit an acute inflammatory response in the peritoneal cavity.
Mice (BALB/c mice, aged 6-8 w, females) were challenged with 50 μg/kg LPS by intraperitoneal (i.p.) injection. 120 min after LPS administration, ATP was delivered by i.p. injection at 50 mM in 200 μL. […]
Cytometric Bead Array (CBA) Assay for IL-1β detection was performed on the peritoneal wash supernatant as follows: supernatants or cytokine standards were incubated with the capture beads mixture for 1 hour at room temperature. […] After washing in Wash Buffer containing 1×PBS, blocking protein, and detergent, the beads were re-suspended and analyzed by flow cytometry.
The cytokine analysis raw data were analyzed using FACP. […] Data were expressed as the Mean±SD. […]

The subject of experiment [1] is NLRP3 inflammasome pathway. Put plainly: NLRP3 inflammasome pathway activation assay, MSU stimulation, IL-1β HTRF. The experiment is classed as cell-based. Conditions: Homo sapiens, 3 h, Table 7; PMA-differentiated, LPS-primed cells; MSU 200 μg/mL for 3 h; IL-1β release; read-out: IC50 Human monocyte-like cells MSU. Summed up:
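Human monocyte-like cells differentiated overnight with 10 ng/mL PMA, primed 3 h with 10 ng/mL LPS, given compound ([…]) 30 min before 3 h stimulation with Nigericin 3.75 μM or MSU 200 μg/mL. Supernatant IL-1β quantified by HTRF; IC50 at 50% inhibition.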

The subject of experiment [2] is NLRP3 inflammasome pathway. Put plainly: NLRP3 inflammasome pathway activation assay, Nigericin stimulation, IL-1β HTRF. The experiment is classed as cell-based. Conditions: Homo sapiens, 3 h, Table 7; PMA-differentiated, LPS-primed cells; Nigericin 3.75 μM for 3 h; IL-1β release; read-out: IC50 Human monocyte-like cells Nigericin. The method, then:
The following assays were used to determine the inhibitory activity of test compounds on the NLRP3 inflammasome pathway using common stimuli Nigericin (Invivogen) or monosodium urate crystals (MSU) (Invivogen).
Human monocyte-like cells were cultured in RPMI-1640 Glutamax medium supplemented with 10% heat inactivated FBS (Fetal Bovine Serum) and 50 U/mL penicillin-streptomycin (Life Technologies).
Human monocyte-like cells were seeded at 25000 per well in a 384-well plate and were differentiated overnight into macrophages with 10 ng/mL PMA (Phorbol Myristate Acetate). The following day, medium containing 10 ng/mL LPS (Lipopolysaccharide) was added. After 3 hours of LPS priming, concentrations of test compound in the range from […] were added 30 min prior to NLRP3 inflammasome pathway stimulation with Nigericin 3.75 μM or MSU 200 μg/mL for 3 h.
For IL-1p quantification, supernatants were analyzed using HTRF kit according to the manufacturer's instructions (Cisbio 62HIL1BPEH). Briefly, in a 384-well ProxiPlate™ microplate, 8 μl of sample was mixed, with 5 μl of Anti-IL1β Cryptate antibody (40×) and Anti-IL1β XL antibody (40×). Then, incubated overnight at RT. Reading was done using an EnVision Reader (PerkinElmer).
IC50 (concentration corresponding to 50% inhibition) were determined using GraphPad Prism 9.

Molecules are shown by their SMILES. Some results are limits rather than exact numbers.

As for `Cc1cc(C(F)(F)F)cc(O)c1-c1nc2nc(NC3CCN(C)C3)ccc2n1C` (racemic) [Example 18, 3-methyl-2-(1-methyl-5-((1-methylpyrrolidin-3-yl)amino)-1H-imidazo[4,5-b]pyridin-2-yl)-5-(trifluoromethyl)phenol], the “IL-1β release in peritoneal wash (PW)” value in the experiment with IL-1β is “significantly reduced IL-1p release in PW in a dose response manner”.
`Cc1cc(C(F)(F)F)cc(O)c1-c1nc2nc(OC3CCN(C)C3)cnc2n1C` (single isomer, unassigned) [Example 53, 3-methyl-2-(1-methyl-5-((1-methylpyrrolidin-3-yl)oxy)-1H-imidazo[4,5-b]pyrazin-2-yl)-5-(trifluoromethyl)phenol]: in experiment [1], the IC50 is less than 0.1 µM. The “IL-1β release in peritoneal wash (PW)” value in the experiment with IL-1β was “significantly reduced IL-1β release in PW in a dose response manner”.
For `CCn1c(-c2c(C)cc(C(F)(F)F)cc2O)nc2nc(OCCO)ccc21` [Example 32, 2-(1-ethyl-5-(2-hydroxyethoxy)-1H-imidazo[4,5-b]pyridin-2-yl)-3-methyl-5-(trifluoromethyl)phenol], the results for the IC50 in experiment [2] and in experiment [1] were 0.1 to 1 µM and less than 0.1 µM, respectively.

The IC50 is the concentration needed to halve the response being measured.

(Values after patent US20240101563A1, “NOVEL COMPOUNDS” (AC Immune SA, priority 2022, published 2024).)
